Data from patent US5160742A, “System for delivering an active substance for sustained release” (Abbott Laboratories, priority 1991, dated 1992).

What was measured:
Assay type in all cases: physicochemical
[1] = Suspension stability study: amoxicillin released in syrup; details: 30° C.
Description: Samples of particles having each of the structure from Table 11 were suspended at a concentration of 250 mg amoxicillin per 5 ml in sucrose-based syrups adjusted to different pH's, the formulations of these syrups are set forth in Table 12, were stored at 30° C. and shaken daily. Samples were removed for testing at 1 hours, 1 day, 7 days and 14 days. Encapsulated drug and undissolved particulate matter were removed from the suspensions by filtration through a 35 micron filter. The clarified syrups were diluted with mobile phase of pH 5.0 potassium phosphate buffer containing 4% acetonitrile and filtered again through a 0.45 micron filter prior to analysis by high pressure liquid chromatography (HPLC). The method of quantitating the amount of amoxicillin released in the syrup solutions was adapted from the USP method for amoxicillin described on pages 2088-2089 of Supplement 1 in USP XXII-NF XVII.

[2] = Dissolution of amoxicillin particles in simulated intestinal fluid
Description: (§1) The particles were subjected to dissolution tests in simulated gastric fluid (SGF) at pH 1.2 simulated intestinal fluid (SIF) at pH 6.8. The SGF and SIF were prepared per USP specs (USP XXII-NF XVII, pp. 1788-1789, 1990). Selected samples were also tested in SGF at pH 5.0, in pH 1.2 and 5.0 acids, and in pH 6.8 buffer. The pH 1.2 and 5.0 acids were prepared the same way as the corresponding SGF's, except no enzymes were added. Similarly, the pH 6.8 buffer was prepared the same way as the SIF, except no enzyme was added. The dissolution test was conducted using apparatus 2 assembly, as specified by USP (USP XXII-NF XVII, pp. 1578-1579, 1990). The nominal capacity of the dissolution vessel was 1000 mL. A peddle was used as the stirring element at a rotational speed of 50 rpm. The temperature was maintained at 37°+0.5° C. using a circulating water bath. The solution was sampled at 0.5, 1, and 2 hours for the test in SGF, and at 1, 3, and 6 hours for the test in SIF. A 10-mL aliquot was drawn at each sampling time through a 35 micron filter. […] The particles manufactured in this example were subjected to dissolution testing as described in Example 1. Selected particle samples were subjected to sequential dissolution testing as described in Example 2. […] The column was C-18. […] The detector was UV at 230 nm. A pure amoxicillin trihydrate (AMX1), which was calibrated with an USP reference standard, was used as the working standard. For dissolution sample analysis, the standard was dissolved in the mobile phase. For zein-coated drug analysis, both the sample and the standard were dissolved by mixing with 5 mL methanol for 2-5 minutes and then diluting with the mobile phase to the desired level.

[3] = Dissolution of amoxicillin particles in simulated gastric fluid
Description: as §1

[4] = Suspension stability study: APAP released in syrup
Source text: The concept that stability in an aqueous suspension is primarily controlled by the exterior coating layer is supported by studies performed on acetaminophen (APAP). Acetaminophen was coated with various combinations of zein and Eudragit®. […] The composition of these syrups was similar to those used for the amoxicillin suspensions (compare Tables 12 and 14). A description of the manufacture of the APP27 particles is set forth above in Example 3; for APP32 particles in Example 3; for APP42 particles in Example 5; and for APP46 particles in Example 5. The particles identified in the tables as as "APAP" are uncoated acetaminophen. APP27 and 32 were suspended at 250 mg per 5 ml in a syrup at pH 8.1 and APP42 and 46 were each suspended at the same concentration in syrups at both pH 5.0 and 8.1 respectively. For analysis of samples in sucrose-based syrups, the samples were diluted 50-400 folds with water and then filtered through a 0.45 micron filter for HPLC analysis. The dilution was necessary for proper UW detection and to minimize the effect of matrix on column performance. The methanol content of the aqueous mobile phase was adjusted between 2 and 15%, pending the performance of the C-18 column used.

[5] = Dissolution of acetaminophen (APAP) particles in simulated intestinal fluid (USP apparatus 2)
Description: (§2) The particles were subjected to dissolution tests in simulated gastric fluid (SGF) at pH 1.2 simulated intestinal fluid (SIF) at pH 6.8. The SGF and SIF were prepared per USP specs (USP XXII-NF XVII, pp. 1788-1789, 1990). Selected samples were also tested in SGF at pH 5.0, in pH 1.2 and 5.0 acids, and in pH 6.8 buffer. The pH 1.2 and 5.0 acids were prepared the same way as the corresponding SGF's, except no enzymes were added. Similarly, the pH 6.8 buffer was prepared the same way as the SIF, except no enzyme was added. The dissolution test was conducted using apparatus 2 assembly, as specified by USP (USP XXII-NF XVII, pp. 1578-1579, 1990). The nominal capacity of the dissolution vessel was 1000 mL. A peddle was used as the stirring element at a rotational speed of 50 rpm. The temperature was maintained at 37°+0.5° C. using a circulating water bath. The solution was sampled at 0.5, 1, and 2 hours for the test in SGF, and at 1, 3, and 6 hours for the test in SIF. A 10-mL aliquot was drawn at each sampling time through a 35 micron filter. The aliquot was then filtered again through a 0.45 micron filter for HPLC analysis to determine its drug content. An HPLC method was developed for the determination of acetaminophen in zein-coated powders and in dissolution samples from various media. Zein-coated powders were dissolved in methanol for analysis. An acetaminophen USP reference standard was used for the quantitation. For zein-coated drug analysis, the standard was prepared in methanol. For dissolution sample analysis, the standard was prepared in water. Each sample or standard solution was then filtered through a 0.45 micron filter for HPLC analysis. A C-18 column connected with an UV detector at 244 nm was used for the HPLC analysis. The mobile phase was water/methanol (85/15, v/v) at a flow rate of 1.0 mL/min. The analysis time was 18-20 min/injection.

[6] = Dissolution of acetaminophen (APAP) particles in simulated gastric fluid (USP apparatus 2)
Description: as §2

## CC1(C)S[C@@H]2[C@H](NC(=O)[C@H](N)c3ccc(O)cc3)C(=O)N2[C@H]1C(=O)O [AMX1, amoxicillin trihydrate]
[1]; Syrup at pH 5.0, 1 Day
  Percent Amoxicillin Released in Syrup: 9.3%
[1]; Syrup at pH 5.0, 1 Hr
  Percent Amoxicillin Released in Syrup: 7.4%
[1]; Syrup at pH 5.0, 7 Days
  Percent Amoxicillin Released in Syrup: 11.3%
[1]; Syrup at pH 5.0, 14 Days
  Percent Amoxicillin Released in Syrup: 9.0%
[1]; Syrup at pH 6.5, 1 Day
  Percent Amoxicillin Released in Syrup: 9.6%
[1]; Syrup at pH 6.5, 1 Hr
  Percent Amoxicillin Released in Syrup: 8.6%
[1]; Syrup at pH 6.5, 7 Days
  Percent Amoxicillin Released in Syrup: 14.6%
[1]; Syrup at pH 6.5, 14 Days
  Percent Amoxicillin Released in Syrup: 10.9%
[1]; Syrup at pH 8.5, 1 Day
  Percent Amoxicillin Released in Syrup: 2.8%
[1]; Syrup at pH 8.5, 1 Hr
  Percent Amoxicillin Released in Syrup: 19.5%
[1]; Syrup at pH 8.5, 7 Days
  Percent Amoxicillin Released in Syrup: 9.6%
[1]; Syrup at pH 8.5, 14 Days
  Percent Amoxicillin Released in Syrup: 5.7%

## CC1(C)S[C@@H]2[C@H](NC(=O)[C@H](N)c3ccc(O)cc3)C(=O)N2[C@H]1C(=O)O [AMX23, amoxicillin]
[2]; In SIF, pH 6.8, 1 hr
  Cumulative % Release of Amoxicillin, 1 hr: 83%
[2]; In SIF, pH 6.8, 3 hr
  Cumulative % Release of Amoxicillin, 3 hr: 91%
[2]; In SIF, pH 6.8, 6 hr
  Cumulative % Release of Amoxicillin, 6 hr: 93%
[2]; SIF pH 6.8
  release of amoxicillin in simulated intestinal fluid (in words): quite rapidly
[3]; In SGF, pH 1.2, 0.5 hr
  Cumulative % Release of Amoxicillin, 0.5 hr: 53%
[3]; In SGF, pH 1.2, 1 hr
  Cumulative % Release of Amoxicillin, 1 hr: 45%
[3]; In SGF, pH 1.2, 2 hr
  Cumulative % Release of Amoxicillin, 2 hr: 36%
[3]; SGF pH 1.2
  release of amoxicillin in simulated gastric fluid (in words): rapid release

## CC(=O)Nc1ccc(O)cc1 [APAP, acetaminophen]
[4]; Table 15, syrup at pH 8.1, 1 Hr
  Percent APAP Released in Syrup: 20.0%
[4]; Table 15, syrup at pH 8.1, 28 Days
  Percent APAP Released in Syrup: 23.0%
[4]; Table 16, syrup pH 5.0, 1 Day
  Percent APAP Released in Syrup: 31.9%
[4]; Table 16, syrup pH 5.0, 1 Hr
  Percent APAP Released in Syrup: 20.2%
[4]; Table 16, syrup pH 5.0, 7 Days
  Percent APAP Released in Syrup: 26.5%
[4]; Table 16, syrup pH 5.0, 14 Days
  Percent APAP Released in Syrup: 24.9%
[4]; Table 16, syrup pH 8.1, 1 Day
  Percent APAP Released in Syrup: 27.5%
[4]; Table 16, syrup pH 8.1, 1 Hr
  Percent APAP Released in Syrup: 7.7%
[4]; Table 16, syrup pH 8.1, 7 Days
  Percent APAP Released in Syrup: 29.8%
[4]; Table 16, syrup pH 8.1, 14 Days
  Percent APAP Released in Syrup: 28.0%

## CC(=O)Nc1ccc(O)cc1 [APP21, Acetaminophen]
[5]; In SIF, pH 6.8, 1 hr
  Cumulative % Release of APAP, 1 hr: 98%
[5]; In SIF, pH 6.8, 3 hr
  Cumulative % Release of APAP, 3 hr: 101%
[5]; In SIF, pH 6.8, 6 hr
  Cumulative % Release of APAP, 6 hr: 102%
[5]; SIF pH 6.8
  release of APAP in simulated intestinal fluid (in words): dissolved fairly rapidly
[6]; In SGF, pH 1.2, 0.5 hr
  Cumulative % Release of APAP, 0.5 hr: 97%
[6]; In SGF, pH 1.2, 1 hr
  Cumulative % Release of APAP, 1 hr: 97%
[6]; In SGF, pH 1.2, 2 hr
  Cumulative % Release of APAP, 2 hr: 98%
[6]; SGF pH 1.2
  release of APAP in simulated gastric fluid (in words): dissolved in gastric fluid very quickly
